A melting point compilation (Tetko et al.; mined from patent text by program, amines drawn as free bases though some values may be those of a salt)

Row | SMILES | melting point
1 | CC(C)(NC(=O)C1=C(C(=O)Nc2cc(OC3CCCC3)c(Cl)cc2F)CCCC1)c1ccc(Cl)cc1 | 218 to 219 °C
2 | COc1ccc(-c2cc3cc(F)c(F)cc3[nH]2)cc1NC(=S)Nc1cccnc1 | 128 to 130 °C
3 | CC(C)COC(=O)Sc1ccc(-c2ccccc2)cc1 | 78 to 79 °C
4 | O=[N+]([O-])c1ccc(S(=O)CCCCl)cc1 (stereo unspecified) | 72.5 to 74.5 °C
5 | O=C1N(c2cc(Cl)cc(Cl)c2)C(=O)C2(Cc3ccc(Br)cc3)CCCN12 (stereo unspecified) | 69.4 °C
6 | O=C1OCCC=C1c1ccccc1 | 100 to 101 °C
7 | CCOc1ccc(OCc2ccc(OCc3nc(-c4ccccc4)oc3C)cc2)cc1CC(=O)O | 122 to 123 °C
8 | CC(=O)C(=O)c1ccc(NS(C)(=O)=O)c(Sc2ccc(F)cc2F)c1 | 108 to 109 °C
9 | O=c1nc(-c2cccc(-c3ccccc3)n2)sc2ccccc12 | 195 to 197 °C
10 | Cc1ccc(N2Cc3ccccc3P2(=O)C(C)C)cc1 (stereo unspecified) | 135 to 137 °C
11 | CCC(Oc1cccc(C(F)(F)F)c1C)C1=NCCN1 (stereo unspecified) | 120 to 122 °C
12 | COC(=O)C(NS(=O)(=O)Cc1c(Cl)c(C)cc2nc(OC)c(OC)nc12)c1ccccc1 (stereo unspecified) | 214 to 217 °C
13 | CC(C)(C)n1c(=O)n(-c2ccnc(N)c2)c2ccccc21 | 177 to 178 °C
14 | CCOC=CC(=O)Nc1cccc(C(=O)O)c1 | 200 to 202 °C
15 | O=[N+]([O-])c1oc2cc(NS(=O)(=O)C(F)(F)F)ccc2c1-c1ccccc1 | 114 to 120 °C
16 | CCN1C(=O)C(F)N=C(c2ccccc2)c2cc(Cl)ccc21 (stereo unspecified) | 156 to 158 °C
17 | O=C(O)CCC(CC1(C(=O)NC2CCC(C(=O)OCc3ccccc3)CC2)CCCC1)C(=O)OCc1ccccc1 (stereo unspecified) | 103 to 104 °C
18 | O=C1c2ccccc2C(=O)c2sc(-c3ccco3)nc21 | > 260 °C
19 | CCOP(=O)(OCC)C(O)c1ccc(NC(=O)CCc2oc(-n3cnc4ccccc43)nc2-c2ccc(Cl)cc2)cc1 (stereo unspecified) | 171 to 172 °C
20 | CCc1[nH]c(=O)[nH]c1C(=O)c1ccc(C#N)cc1 | 269 to 271 °C
21 | CC#CCOc1ccc(SC(C(=O)NO)c2ccccc2)cc1 (stereo unspecified) | 151 °C
22 | CCn1nc(OCCCCc2ccc(OC(C)C)cc2Oc2ncc(C(F)(F)F)cc2Cl)cc1CCC(=O)O | 129 to 130 °C
23 | Cc1nnc(-c2ccc3occ(-c4ccc(N(C)C)cc4)c3c2)o1 | 205 to 206 °C
24 | COc1cccc(C(=O)N2CCc3cc(O)c(OC)cc3C2=O)c1 | 198 to 199 °C
25 | C=C(C(=O)O)c1cc(-c2cc3c(cc2C)C(C)(C)CCC3(C)C)ccc1OCCC | 125 to 126 °C
26 | N#Cc1ccc(OCC(O)CN2CC3CC(C2)CN(C(=O)Oc2ccc(F)cc2)C3)cc1 (stereo unspecified) | 145 to 146 °C

Row | SMILES | melting point
27 | CC1(C)Oc2cc(C#N)c(C#N)cc2O1 | 202 to 203 °C
28 | CCOP(=O)(OCC)C(CC(C(=O)Nc1ccccn1)C(=O)c1ccccc1)P(=O)(OCC)OCC (stereo unspecified) | 104 to 105 °C
29 | O=S1(=O)N=CN(C2CCCC2)c2ccc(Cl)cc21 | 218 to 220 °C
30 | CN1C(=O)C(c2cccc(Br)c2)(C2CCN(C(=O)c3ccccc3)CC2)N=C1N (stereo unspecified) | > 250 °C
31 | C[C@H](NC(c1ccccc1)(c1ccccc1)c1ccccc1)C(=O)O | 154 to 155 °C
32 | N#Cc1ccc2c(c1)ncn2-c1cccc(Br)c1 | 168 to 174 °C
33 | NC(C(=O)O)C1CC(C(=O)O)C1C(=O)O (stereo unspecified) | 205 to 209 °C
34 | COc1ccccc1COc1ccc(-c2cc(O)c(SCCc3ccccc3)c(=O)o2)cc1 | 138 to 139 °C
35 | COCCNC(=O)Nc1nc2cc(OS(=O)(=O)c3c(C)cc(C)cc3C)ccc2[nH]1 | 140 °C
36 | Cc1cc(C)c2c(c1O)C(N)C(c1ccccc1)C2 (stereo unspecified) | 135 to 136 °C
37 | CCCCC(C(=O)OCC)=C(Nc1cccc(SC)c1)C(=O)OCC | 55 °C
38 | COc1ccc(C(C)N(O)C(N)=O)cc1 (stereo unspecified) | 132 to 134 °C
39 | CCOC(=O)c1ncn2c1CN(C)C(=O)c1cnccc1-2 | 205 to 206 °C
40 | O=S(=O)(Nc1nccnc1OCc1ccc(CO)cc1)c1cccc(Cl)c1Cl | 160 to 161 °C
41 | COC(=O)c1cc(I)c[nH]c1=O | 190 to 192 °C
42 | O=C(O)c1ccccc1Oc1cccc(F)c1 | 122 °C
43 | O=C(CC1(c2ccccc2)C(=O)Oc2ccc(Cl)cc21)N1CCN(c2ccc(C(F)(F)F)cn2)CC1 (stereo unspecified) | 228 °C
44 | COC(=O)/C=C(C)/C=C/C(F)=C(C)/C=C/C1(C)C=C(C)OC1C (stereo unspecified) | 122 to 126 °C
45 | CCOC(=O)c1c(Cn2cncn2)nc2sc(C)c(C)c2c1-c1ccc(OC)c(OC)c1 | 136 to 137 °C
46 | O=C1CCCCN1CCCOC1c2ccccc2C(=O)N1c1ccc2ccc(Cl)nc2n1 (stereo unspecified) | 140 °C
47 | CCCc1c(OCCCCC(=O)N(CC)CC)ccc(C(C)=O)c1O | 95 to 97 °C
48 | COc1ccc2[nH]nc(N3CCNCC3)c2c1 | 163 to 169 °C
49 | CNC(=O)[C@H]1CN(c2ccc3c(c2)oc(=O)n3C(C)C)C(=O)O1 | 216 to 218 °C
50 | CC(C)N(CCN1C(=O)C(=O)c2ccc(Cl)cc21)C(C)C | 78 to 79 °C
51 | CCOC(=O)c1ccc(NC(=O)C=C(c2ccc(OC)cc2)c2ccc(OC)cc2)cc1 | 156 to 159 °C
52 | CONC(=O)Nc1ccc(-c2sc3c(c2CCl)c(=O)n(-c2ccc4c(c2)OCCO4)c(=O)n3Cc2c(F)cccc2F)cc1 | 204 to 209 °C

Row | SMILES | melting point
53 | CCC(=O)Nc1c([N+](=O)[O-])cnn1-c1ncc(Cl)cc1Cl | 53 to 56 °C
54 | CN(C)Cc1ccc(-c2ccc(S(=O)(=O)n3ccc(C=CC(=O)NO)c3)cc2)cc1 | 216 to 217 °C
55 | CC(=O)Oc1ccc(Br)cc1Cc1cc(Cl)cc(Cc2cc(Br)ccc2O)c1OC(C)=O | 190 to 192 °C
56 | CCOCc1nc2c(N)nc(C)c(C)c2n1CC1(O)CCCCC1 | 194 to 195 °C
57 | CNC(=O)[C@H]1CN(c2ccc3c(c2)sc(=O)n3C)C(=O)O1 | 264 to 267 °C
58 | COC(=O)Nc1nc2cc(C(c3ccc(F)cc3)n3ccnc3C)ccc2[nH]1 (stereo unspecified) | > 300 °C
59 | Cc1ccc(S(=O)(=O)OCC2Cc3cccc(Br)c3O2)cc1 (stereo unspecified) | 120 to 122 °C
60 | NC(=O)CN(CCCCCCNc1nsc2nccn12)S(=O)(=O)c1cccc2ccccc12 | 141 to 144 °C
61 | CCOc1nc(NCCCCC2CC(C)(C)NC(C)(C)C2)nc(NCCCCC2CC(C)(C)NC(C)(C)C2)n1 | 95 to 104 °C
62 | COc1cc2[nH]cc(C3CN4CCC3CC4)c2cc1OC (stereo unspecified) | 243 to 245 °C
63 | OCCc1ccc(OCCCCl)cc1 | 49 to 50 °C
64 | O=C(NCC(=O)c1cccs1)c1ccccc1 | 146 to 147 °C
65 | C=CCNC(=O)Cn1c(-c2ccc(Cl)cc2)nc2cccnc21 | 208 to 209 °C
66 | Oc1ccc(Cc2ccc(OCc3ccccc3)cc2)cc1 | 95 to 96 °C
67 | N#CCc1coc2ccc3c(c12)C=CCO3 | 99 to 101 °C
68 | CCCc1c(CSc2nnc(S)s2)ccc(C(C)=O)c1O | 133 to 135 °C
69 | CC1CCCC(C)N1c1cc(F)cc(C(=O)Nc2ccc(OCCN3CCOCC3)c3ccccc23)c1 (stereo unspecified) | 105 to 107 °C
70 | COc1nc(Br)cnc1NS(=O)(=O)c1ccccc1-c1ccc(C)cc1 | 204 to 206 °C
71 | COc1ccc(-c2cc(=O)n(CC=Cc3ccc(Cl)cc3)nc2-c2ccc(OC)c(F)c2)cc1 | 144 to 145 °C
72 | CCCCCc1ccc(Br)nn1 | 31 to 32 °C
73 | CCCN(C)C(C)CN1CCc2c(c(=O)oc3cc(OC)c(OC)cc23)C1 (stereo unspecified) | 81 to 85 °C
74 | COc1nc(C)cnc1N(C(=O)OCC(C)C)S(=O)(=O)c1cccnc1-c1ccc(CC(C)C)cc1 | 133 to 137 °C
75 | O=C(NC1CCCCC1)N(C(=O)c1ccccc1[N+](=O)[O-])C1CCCCC1 | 134 °C
76 | COC1(c2cccc(Oc3nc(-c4ccccc4)c(-c4ccc(S(N)(=O)=O)cc4)o3)c2)CCOCC1 | 145 to 147 °C
77 | FC(F)(F)c1cc(CO[C@H]2CCCN(Cc3ncncn3)[C@H]2c2ccccc2)cc(C(F)(F)F)c1 | 117 to 119 °C
78 | CCc1cc2c(cc1CC)C(=CC#N)OC2=O | 147 to 158 °C

Row | SMILES | melting point
79 | Cc1c(Cc2ccc(C(C)C)cc2)c2c(c(C)c1NC(=O)CC(C)(C)C)C(c1ccc(C(C)C)cc1)CO2 (stereo unspecified) | 157 to 158 °C
80 | OCc1ccc(/C=C/c2ccncc2)cc1 | 211 to 213 °C
81 | O=C(Nc1cc(-c2cccc(C(F)(F)F)c2)no1)c1c(F)cccc1F | 123 to 126 °C
82 | CN(C)CCOc1ccc(-c2nnc(CSCCOc3ccccc3)o2)cc1 | 62 to 64 °C
83 | CCCOc1ccccc1-c1nc2n(C(C)(C)C)[nH]cc-2c(=O)n1 | 130 to 131 °C
84 | CC(=O)CC(=O)N1c2ccc(C(O)(C(F)(F)F)C(F)(F)F)cc2CC1C (stereo unspecified) | 118 to 119 °C
85 | CC(C)C(=O)Nc1nc(N)cnc1-c1cc(Cl)cc(Cl)c1Cl | 105 to 108 °C
86 | C[C@@H]1C[C@H](I)[C@@H]2C[C@H]1C(=O)O2 | 99 to 100 °C
87 | N#CC(C#N)(OC(=O)c1ccc(Cl)cc1)c1ccc(Cl)cc1 | 158 to 159 °C
88 | COc1cc(OC)nc(Nc2ccc(C)cc2[N+](=O)[O-])n1 | 158 to 161 °C
89 | O=C(O)c1cc(=O)c2cc3c(=O)cc(C(=O)O)[nH]c3c(Cl)c2[nH]1 | > 310 °C
90 | CC(C)(C)c1cc2c(c(C(C)(C)C)c1)OC(=O)C2c1ccccc1 (stereo unspecified) | 116 to 119 °C
91 | Cc1c(NC(=O)CC(C)(C)C)cc2c(c1C)OC(C)(C)C2(O)c1ccc2ccccc2c1 (stereo unspecified) | 142 to 144 °C
92 | Cc1ccccc1NN=C(Cl)c1ccccc1 | 64.5 to 66 °C
93 | Cn1c(S(=O)(=O)C(F)(F)C(F)F)nc(-c2ccc(F)cc2)c1-c1ccc(F)cc1 | 122 to 124 °C
94 | CC(c1cc2ccccc2s1)N(O)C=O (stereo unspecified) | 115 to 116 °C
95 | CCOC(CC)=C1SC(=S)N(c2ccccc2)C1=O | 178 to 181 °C
96 | COC(C)=Nc1nc[nH]c1C#N | 147 to 149 °C
97 | CCCn1nc2c(=O)[nH]c3ccccc3c2c1N | 266 to 268 °C
98 | Cn1nnc2c(N3CCNCC3)ncnc21 | 95 to 96 °C
99 | COc1cc2nc(N)nc(-c3ccc(O)c(I)c3)c2cc1OC | 248 to 250 °C
100 | CCN(CC)CCOc1ccc(Nc2ncc3c(n2)NC(=O)N(c2c(Cl)cccc2Cl)C3)cc1 | 248 °C
101 | CCCCNC(=O)OCC(=O)O | 83 to 84 °C
